# Assay results published in US20170008845A1, “PYRIDINYL CYCLOHEXANECARBOXAMIDE COOLING COMPOUNDS” (Givaudan, S.A., priority 2005, published 2017).
# Like-named read-outs stand apart in the source and are kept apart here.
# Legend:
# [1] = test system: panelists (cooling sensation in the mouth); experiment: Panel tasting of aqueous solutions: cooling intensity matched to menthol 2 ppm, and longevity; type: in vivo; details: for Longevity (time until no cooling could be sensed in the mouth): aqueous solution at the chosen concentration of Table 2; for Concentration with cooling intensity similar or slightly higher than menthol at 2 ppm: aqueous solution, tasted by a small panel
# Description: The same panel is asked to taste these solutions at the chosen concentrations and to record the cooling intensity at regular time intervals until no cooling could be sensed in the mouth.
# [2] = test system: mouth and lips; details: 50 mL of 1% solution in alcohol per 1 liter mouthwash (with peppermint oil); 30 mL swished, gargled, spit out
# Protocol: All the ingredients are mixed. 30 mL of obtained solution is put in the mouth, swished around, gargled and spit out.
# [3] = test system: panelists (cooling sensation in the mouth); details: cooling intensity similar to or slightly higher than menthol at 2 ppm
# [4] = test system: panelist's mouth; details: 2.500 g of 2% solution in propylene glycol in 97 g opaque toothgel (with peppermint oil); teeth brushed, mouth rinsed
# Description: The chemicals are mixed in the toothgel, a piece of toothgel is put on a toothbrush and a panelist's teeth are brushed. The mouth is rinsed with water and the water is spit out.
# [5] = test system: panelist's mouth; details: 1.5 mg in 355 mL can of clear lemon/lime soda
# Protocol: 1.5 mg of the compound of example 2 is dissolved in a 355 mL (12 fl oz.) can of clear lemon/lime soda.
Compound,Longevity (time until no cooling could be sensed in the mouth) [1] [min],Concentration with cooling intensity similar or slightly higher than menthol at 2 ppm [1] [ppm],Cooling sensation in mouthwash [2],Isointensive concentration [3] [ppm],"Isointensive concentration ([3]; listed as m = 0, 4) [ppm]",Cooling sensation in toothgel [4],After-taste in beverage [5],Cooling sensation in beverage [5],"Isointensive concentration ([3]; listed as m = 2, 2 or 6) [ppm]"
"CC1CCC(C(C)C)C(C(=O)Nc2ccncc2)C1 (centres unmarked) [Example 1, N-(4-pyridinyl) p-menthanecarboxamide]",50,0.5,icy-cool sensation is felt in every area of the mouth as well as lips,0.67,0.5,–,–,–,–
"CC(C)[C@@H]1CC[C@@H](C)C[C@H]1C(=O)NCCc1ccccn1 [Example 2, (1R,2S,5R)-2-isopropyl-5-methyl-N-(2-(pyridin-2-yl)ethyl)cyclohexanecarboxamide]",60,0.02,–,0.05,–,intense cooling sensation is felt by the panelist in all areas of the mouth,No unpleasant after-taste,agreeable delayed cooling sensation in the mouth with no throat burning,0.02
"CC(C)C(C)(C(=O)NCCc1ccccn1)C(C)C [Example 3, 2-isopropyl-2,3-dimethyl-N-(2-(pyridin-2-yl)ethyl)butanamide]",–,0.4,–,–,–,–,–,–,–
"CCNC(=O)C1CC(C)CCC1C(C)C (centres unmarked) [N-ethyl p-menthanecarboxamide (WS-3), N-ethyl p-menthanecarboxamide, reference compound]",57,1.5,–,–,–,–,–,–,–
"CC(C)[C@@H]1CC[C@@H](C)C[C@H]1O [l-Menthol, reference compound]",35,2.0,–,–,–,–,–,–,–
